The text below walks through data of US10308595B2, “Albicidin derivatives, their use and synthesis” (priority 2013, dated 2019).

Holding throughout (assay type): cell-based
Experiment [1] relates to Bacillus subtilis DSM10. Put plainly: Test agar plates (disc diffusion), diameter of inhibition area. Particulars: for Antibacterial activity, diameter of inhibition area, Bacillus subtilis DSM 10: 10 μl per test disc, "—" no activity detected; for zone of inhibition at 1000 µg/mL: Bacillus subtilis, DSM10, 18 h, read-out: diameter of inhibition, Bacillus subtilis DSM10. On the procedure:
(§1) The dry compounds were dissolved in DMSO (1 mg/ml) and the so obtained stock solution was diluted with sterilized Millipore water 1:10 and 1:100
(§2) 20 μl of cryo stock of each strain were inoculated to 20 ml of Mueller-Hinton medium and grown overnight at 30° C. or 37° C. on a vertical shaker with 160 rpm. The inoculum for the test was adjusted by the 0.5 McFarland Standard (OD625 from 0.08 to 0.1)
Bacillus subtilis DSM10 [gram. Pos.] Medium: MHB/30° C.
(§3) Every plate is prepared by pouring 10 ml Mueller-Hinton agar into standard petri dishes (diam 94 mm). The so obtained Mueller-Hinton plates are overlayed with 4 ml Mueller-Hinton soft agar containing 100 μl suspension of the test strain.
(§4) After the soft agar turned solid, sterile susceptibility test discs were circular placed on the agar and on every test disc 10 μl compound was added. Each concentration is tested in triplicate. The agar dishes were incubated for 18 hours at a temperature of 30° C. or 37° C. Results are obtained by measuring the diameter of inhibition area around each test disc.

For experiment [2], the system named is Bacillus megaterium. Described as above. The note with it: 10 μl per test disc, "—" no activity detected. On the procedure: as §1, §2
Bacillus megaterium [gram. Pos.] Medium: MHB/30° C.
as §3, §4

Experiment [3] deals with Mycobacterium phlei DSM750. Described as above. The note with it: concentration 1 mg/ml; 10 μl per test disc; "—" no activity detected. On the procedure:
as §1, §2
Mycobacterium phlei DSM750 [gram. Pos.] Medium: MHB/30° C.
as §3, §4

Experiment [4] has as its system Micrococcus luteus DSM1790. The description is as above. Particulars: for Antibacterial activity, diameter of inhibition area, Micrococcus luteus: 10 μl per test disc, "—" no activity detected; for zone of inhibition at 1000 µg/mL: Micrococcus luteus, DSM1790, 18 h, read-out: diameter of inhibition, Micrococcus luteus DSM1790. Here is the method: as §1, §2
Micrococcus luteus DSM1790 [gram. Pos.] Medium: MHB/37° C.
as §3, §4

Experiment [5] deals with Escherichia coli K12 (W1130). Described as above. The note with it: 10 μl per test disc, "—" no activity detected. On the procedure:
as §1, §2
Escherichia coli K12 (W1130) [gram. Neg.] Medium: MHB/37° C.
as §3, §4

Experiment [6] concerns Staphylococcus aureus DSM 2569. The experiment is described as above. The note with it: DSM2569, 18 h, read-out: diameter of inhibition, Staphylococcus aureus DSM 2569. On the procedure: as §1, §2
Staphylococcus aureus DSM 2569 [gram. Pos.] Medium: MHB/37° C.
as §3, §4

In experiment [7] the test system is Pseudomonas aeruginosa DSM1117. Described as above. The note with it: DSM1117, 18 h, read-out: diameter of inhibition, Pseudomonas aeruginosa DSM1117. On the procedure:
as §1, §2
Pseudomonas aeruginosa DSM1117 [gram. Neg.] Medium: MHB/37° C.
as §3, §4

The test system of experiment [8] is Escherichia coli albi-res (Montpellier). Described as above. Particulars: 18 h, read-out: diameter of inhibition, Escherichia coli albi-res (Montpellier). On the procedure: as §1, §2
Escherichia coli albi-res (Montpellier) [gram. Neg.] Medium: MHB/37° C.
as §3, §4

The subject of experiment [9] is Escherichia coli DH5α. The experiment is described as above. Particulars: 18 h, read-out: diameter of inhibition, Escherichia coli DH5α. Here is the method:
as §1, §2
Escherichia coli DH5α [gram. Neg.] Medium: MHB/37° C.
as §3, §4

In experiment [10] the test system is Escherichia coli (ATCC 25922, 100-2-49 and 100-2-56). Put plainly: EN-ISO standard test (ISO 20776-1), MIC. On the procedure: (§5) Furthermore, compounds were tested against the following bacteria
(§6) according to EN-ISO standard (ISO 20776-1: 2006. Clinical laboratory testing and in vitro diagnostic test systems—Susceptibility testing of infectious agents and evaluation of performance of antimicrobial susceptibility test devices—Part 1:Reference method for testing the in vitro activity of antimicrobial agents against rapidly growing aerobic bacteria involved in infectious diseases; German version EN ISO 20776-1:2006. Beuth-Verlag, Berlin).

The test system of experiment [11] is Staphylococcus aureus (ATCC 29213). In words: EN-ISO standard test (ISO 20776-1), MIC. On the procedure: as §5, §6
Experiment [12] deals with Staphylococcus aureus (PEG 10-38-22). Put plainly: EN-ISO standard test (ISO 20776-1), MIC. On the procedure: as §5, §6
Experiment [13] concerns Salmonella enteritidis (PEG-10-3-58). Put plainly: EN-ISO standard test (ISO 20776-1), MIC. On the procedure: as §5
Salmonella enteritidis (PEG-10-3-58),
as §6

For experiment [14], the system named is Pseudomonas aeruginosa (ATCC 27853). In words: EN-ISO standard test (ISO 20776-1), MIC. On the procedure: as §5
(§7) Pseudomonas aeruginosa (ATCC 27853 and PEG-10-2-61)
as §6

Experiment [15] relates to Pseudomonas aeruginosa (PEG-10-2-61). Put plainly: EN-ISO standard test (ISO 20776-1), MIC. On the procedure:
as §5, §7, §6

[16] abbreviates: test agar plates, active substance 1 mg/ml, more than 1 cm or more than 3.9 cm [sic].
Where [17] appears, read: test agar plates, active substance 1 mg/ml, "more than 1 cm and more than 2 cm" [sic].
Setting [18] is: test agar plates, active substance 1 mg/ml, more than 1 cm or more than 2 cm.

Where two headings read alike, the source gives them in different places.

For `COc1c(NC(=O)c2ccc(NC(=O)c3ccc(NC(=O)[C@H](CC#N)NC(=O)c4ccc(NC(=O)/C(C)=C/c5ccc(O)cc5)cc4)cc3)c(OC)c2O)ccc(C(=O)O)c1O` [A, beta-Albicidin], the “Antibacterial activity, diameter of inhibition area, Bacillus subtilis DSM 10” value in [1] (concentration 0.1 mg/ml) was 1.4; in experiment [1] (concentration 1 mg/ml), 2.8. For the same compound, the “Antibacterial activity, diameter of inhibition area, Bacillus megaterium” value is reported as 1.2 in [2] (concentration 0.1 mg/ml) and 2.0 in experiment [2] (concentration 1 mg/ml). The “Antibacterial activity, diameter of inhibition area, Mycobacterium phlei DSM 750” value in experiment [3] is recorded as 1.5. Also, the “Antibacterial activity, diameter of inhibition area, Micrococcus luteus” value in experiment [4] (concentration 0.1 mg/ml) was found to be 2.0; in experiment [4] (concentration 1 mg/ml), 2.8. Besides, the “Antibacterial activity, diameter of inhibition area, Escherichia coli K12 (W1130)” value in experiment [5] (concentration 0.1 mg/ml) is 1.9; in experiment [5] (concentration 1 mg/ml), 2.6.

As for `CN[C@@H]1[C@@H](O[C@H]2O[C@H](CO)[C@@H](N)[C@H](O)[C@H]2O)OC2C[C@@H](N)[C@@H](O[C@H]3[C@H](O)[C@@H](O)[C@H](N)C[C@@H]3N)OC2[C@@H]1O` (some centres unmarked) [Apramycin, reference compound], the “Antibacterial activity, diameter of inhibition area, Bacillus subtilis DSM 10” value in [1] (concentration 1 mg/ml) turned out to be 2.0. In [2] (concentration 1 mg/ml), the “Antibacterial activity, diameter of inhibition area, Bacillus megaterium” value came out at 3.5. In experiment [3], the “Antibacterial activity, diameter of inhibition area, Mycobacterium phlei DSM 750” value was 2.2. The “Antibacterial activity, diameter of inhibition area, Micrococcus luteus” value in experiment [4] (concentration 1 mg/ml) amounted to 1.8. Besides, the “Antibacterial activity, diameter of inhibition area, Escherichia coli K12 (W1130)” value in experiment [5] (concentration 1 mg/ml) was 1.7.

Consider `COc1c(NC(=O)c2ccc(NC(=O)c3ccc(NC(=O)C(CC#N)NC(=O)c4ccc(NC(=O)/C(C)=C/c5ccc(F)cc5)cc4)cc3)c(OC)c2O)ccc(C(=O)O)c1O` (centres unmarked) [Compound 1], for which the zone of inhibition at 1000 µg/mL in experiment [1] (setting [16]), in [4] (setting [17]), in experiment [6] (setting [17]), in experiment [7] (setting [18]), in [8] (setting [18]) and in [9] (setting [18]) was greater than 10 mm each time. The “MIC values (minimal inhibitory concentration), in words” value in experiment [10] is on record as “good to very good”. Moreover, the “MIC values, in words” value in [11], in experiment [12], in experiment [13], in experiment [14] and in experiment [15] was “good to very good” throughout.

With `COc1c(NC(=O)c2ccc(NC(=O)c3ccc(NC(=O)C(CC#N)NC(=O)c4ccc(NC(=O)/C=C/c5ccc6c(c5)OCO6)cc4)cc3)c(OC)c2O)ccc(C(=O)O)c1O` (centres unmarked) [Compound 5], the zone of inhibition at 1000 µg/mL in [1] (setting [16]), in [4] (setting [17]), in experiment [6] (setting [17]), in experiment [7] (setting [18]), in experiment [8] (setting [18]) and in [9] (setting [18]) was greater than 10 mm in each case. For the same compound, the “MIC values (minimal inhibitory concentration), in words” value in [10] is given as “good to very good”. Moreover, the “MIC values, in words” value in [11], in [12], in experiment [13], in experiment [14] and in [15] was “good to very good” each time.

For the compound `COc1c(NC(=O)c2ccc(NC(=O)c3ccc(NC(=O)C(CC#N)NC(=O)c4ccc(NC(=O)c5cscn5)cc4)cc3)c(OC)c2O)ccc(C(=O)O)c1O` (centres unmarked) [Compound 16], the zone of inhibition at 1000 µg/mL in experiment [1] (setting [16]), in [4] (setting [17]), in experiment [6] (setting [17]), in experiment [8] (setting [18]) and in experiment [9] (setting [18]) was greater than 10 mm each time. In addition, the “MIC values (minimal inhibitory concentration), in words” value in [10] was “good to very good”. Also, the “MIC values, in words” value in experiment [13] was “good to very good”.

Turning to `COc1c(NC(=O)c2ccc(NC(=O)c3ccc(NC(=O)C(CC#N)NC(=O)c4ccc(NC(=O)COc5ccccc5)cc4)cc3)c(OC)c2O)ccc(C(=O)O)c1O` (centres unmarked) [Compound 30], the zone of inhibition at 1000 µg/mL in experiment [1], in experiment [4], in [6], in experiment [7], in [8] and in experiment [9] was greater than 10 mm throughout. Further, the “MIC values (minimal inhibitory concentration), in words” value in [10] is “good to very good”. Moreover, the “MIC values, in words” value in experiment [11], in experiment [13] and in experiment [14] was “good to very good” throughout.

Regarding `COc1c(NC(=O)c2ccc(NC(=O)c3ccc(NC(=O)C(CC#N)NC(=O)c4ccc(NC(=O)C5CCCCC5)cc4)cc3)c(OC)c2O)ccc(C(=O)O)c1O` (centres unmarked) [Compound 35], the zone of inhibition at 1000 µg/mL in experiment [1] (setting [16]), in experiment [6] (setting [17]), in experiment [7] (setting [18]), in [8] and in experiment [9] (setting [18]) was greater than 10 mm each time. For the same compound, the “MIC values (minimal inhibitory concentration), in words” value in experiment [10] was “good to very good”. Also, the “MIC values, in words” value in [13] and in [14] was “good to very good” throughout.

Regarding `COc1c(NC(=O)c2ccc(NC(=O)c3ccc(NC(=O)C(CC#N)NC(=O)c4ccc(NC(=O)C5C6CC7CC(C6)CC5C7)cc4)cc3)c(OC)c2O)ccc(C(=O)O)c1O` (centres unmarked) [Compound 36], the zone of inhibition at 1000 µg/mL in experiment [1] (setting [16]), in experiment [4] (setting [17]), in experiment [6] (setting [17]), in experiment [7] (setting [18]), in [8] and in [9] (setting [18]) was greater than 10 mm in each case. For the same compound, the “MIC values (minimal inhibitory concentration), in words” value in experiment [10] is reported as “good to very good”. Besides, the “MIC values, in words” value in experiment [11], in experiment [12], in [13], in [14] and in experiment [15] was “good to very good” throughout.

As for `COc1c(NC(=O)c2ccc(NC(=O)c3ccc(NC(=O)C(CC#N)NC(=O)c4ccc(NC(=O)Nc5ccccc5)cc4)cc3)c(OC)c2O)ccc(C(=O)O)c1O` (centres unmarked) [Compound 43], the zone of inhibition at 1000 µg/mL in experiment [1] (setting [16]), in [7] (setting [18]) and in experiment [8] was greater than 10 mm each time. For the same compound, the “MIC values (minimal inhibitory concentration), in words” value in experiment [10] was “good to very good”. Moreover, the “MIC values, in words” value in [13] is “good to very good”.
